# Measurements reported in patent publication US12643867B2, “Compositions and uses thereof” (University of Virginia Patent Foundation, priority 2017, dated 2026).
# Key:
# Assay in all cases: SILAC LC-MS ATP acyl phosphate probe competition, native kinases in HEK293T
# Assay type in all cases: binding
# [1] = biological target: T1, PI42C (Phosphatidylinositol-5-phosphate 4-kinase type-2 gamma) (Homo sapiens, UniProt Q8TBX8); conditions: site C2; ATP 1 mM; Ketanserin, Ritanserin 100 μM; RF001 1 mM
# T1 construct: Native kinases; endogenous in cells; host or cells: HEK293T soluble proteome
# T1 sequence (Q8TBX8 1-421): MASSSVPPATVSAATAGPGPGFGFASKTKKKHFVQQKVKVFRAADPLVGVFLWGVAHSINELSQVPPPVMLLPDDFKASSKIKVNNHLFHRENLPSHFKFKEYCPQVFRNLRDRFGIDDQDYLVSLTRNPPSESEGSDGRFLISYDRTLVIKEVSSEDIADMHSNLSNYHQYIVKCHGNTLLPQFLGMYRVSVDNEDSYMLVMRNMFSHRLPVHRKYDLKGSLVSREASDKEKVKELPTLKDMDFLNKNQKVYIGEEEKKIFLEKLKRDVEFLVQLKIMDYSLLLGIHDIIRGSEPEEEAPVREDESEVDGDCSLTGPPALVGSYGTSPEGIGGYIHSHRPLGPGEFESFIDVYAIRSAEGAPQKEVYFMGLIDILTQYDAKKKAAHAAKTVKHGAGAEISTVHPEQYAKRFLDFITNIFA
# Method in brief: (§1)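 Light and heavy SILAC HEK293T proteomes (2 mg/ml in kinase buffer) were pre-treated with DMSO or compound (50× stock in DMSO) for 30 min at 25° C, then mixed 1:1, reduced, alkylated and digested with trypsin/Lys-C. Desthiobiotin-labelled peptides were avidin-enriched and analysed by LC-MS/MS on an Orbitrap, top-10 data-dependent acquisition.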
# [2] = biological target: T2, E2AK2 (Interferon-induced, double-stranded RNA-activated protein kinase) (Homo sapiens, UniProt P19525); conditions: site Lys2; ATP 1 mM; Ketanserin, Ritanserin 100 μM; RF001 1 mM
# T2 construct: measured against >50 native kinases quantified in HEK293T soluble proteomes; endogenous in cells; host or cells: HEK293T soluble proteome
# T2 sequence (P19525 whole entry): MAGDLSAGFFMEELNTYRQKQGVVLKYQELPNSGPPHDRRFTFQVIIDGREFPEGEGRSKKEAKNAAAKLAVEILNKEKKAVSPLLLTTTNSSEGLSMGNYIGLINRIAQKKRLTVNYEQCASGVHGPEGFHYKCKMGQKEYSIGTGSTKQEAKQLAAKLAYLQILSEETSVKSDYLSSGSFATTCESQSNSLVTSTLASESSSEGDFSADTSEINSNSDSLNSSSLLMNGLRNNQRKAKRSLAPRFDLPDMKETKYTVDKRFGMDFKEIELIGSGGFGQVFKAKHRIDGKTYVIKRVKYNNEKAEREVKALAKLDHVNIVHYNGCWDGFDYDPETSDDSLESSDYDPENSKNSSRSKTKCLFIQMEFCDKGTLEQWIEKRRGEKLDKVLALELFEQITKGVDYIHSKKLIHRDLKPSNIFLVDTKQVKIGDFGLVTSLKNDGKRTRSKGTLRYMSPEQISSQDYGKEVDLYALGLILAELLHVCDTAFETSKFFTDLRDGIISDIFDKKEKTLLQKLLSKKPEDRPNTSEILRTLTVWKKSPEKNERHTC
# Method in brief: as §1
# [3] = biological target: T3, NEK3 (Serine/threonine-protein kinase Nek3) (Homo sapiens, UniProt P51956); conditions: site ACT; ATP 1 mM; Ketanserin, Ritanserin 100 μM; RF001 1 mM
# T3 construct: Native kinases; endogenous in cells; host or cells: HEK293T soluble proteome
# T3 sequence (P51956 1-506): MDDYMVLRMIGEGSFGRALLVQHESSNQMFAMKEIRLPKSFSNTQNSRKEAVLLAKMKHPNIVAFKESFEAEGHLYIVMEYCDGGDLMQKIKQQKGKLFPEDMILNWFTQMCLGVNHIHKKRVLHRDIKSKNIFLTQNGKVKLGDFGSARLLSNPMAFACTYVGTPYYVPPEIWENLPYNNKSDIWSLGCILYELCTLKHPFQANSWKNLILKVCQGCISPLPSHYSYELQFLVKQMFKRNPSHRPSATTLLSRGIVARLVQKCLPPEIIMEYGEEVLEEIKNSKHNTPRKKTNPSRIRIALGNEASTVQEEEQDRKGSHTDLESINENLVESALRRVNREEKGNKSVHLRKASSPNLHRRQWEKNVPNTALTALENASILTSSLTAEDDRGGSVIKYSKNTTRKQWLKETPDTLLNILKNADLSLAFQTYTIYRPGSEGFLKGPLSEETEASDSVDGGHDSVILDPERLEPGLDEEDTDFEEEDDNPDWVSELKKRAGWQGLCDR
# Method in brief: as §1
"SILAC ratio, PI42C probe-modified peptide [1]","SILAC ratio, E2AK2 probe-modified peptide [2]","SILAC ratio, NEK3 probe-modified peptide [3]",SMILES
1.2,1.3,1.0,O=C(c1ccc(F)cc1)C1CCN(CCn2c(=O)[nH]c3ccccc3c2=O)CC1 [Ketanserin]
0.8,1.2,1.0,"Fc1ccc(C(=C2CCNCC2)c2ccc(F)cc2)cc1 [RF001, 4-(Bis(4-fluorophenyl)methylene) piperidine]"

SMILES,"SILAC ratio, PI42C probe-modified peptide [1]","SILAC ratio, E2AK2 probe-modified peptide [2]","SILAC ratio, NEK3 probe-modified peptide [3]"
Cc1nc2sccn2c(=O)c1CCN1CCC(=C(c2ccc(F)cc2)c2ccc(F)cc2)CC1 [Ritanserin],1.7,2.8,2.2
